8 molecules from ChEMBL document CHEMBL1201862, “PubChem BioAssay data set” (2004) can be followed below.

Holding throughout (test): inhibition of tumour cell growth, NCI panel, 48 h
In experiment [1] the test system is HCT-116.
Experiment [2] concerns UO-31.
Experiment [3] concerns PC-3.
Experiment [4] relates to DU-145.
In experiment [5] the test system is OVCAR-3.
The test system of experiment [6] is OVCAR-8.
For experiment [7], the system named is OVCAR-5.
For experiment [8], the system named is A498.
Experiment [9] deals with K562.
For experiment [10], the system named is NCI-H226.
In experiment [11] the test system is TK-10.
The test system of experiment [12] is UACC-62.
In experiment [13] the test system is HOP-92.
For experiment [14], the system named is SK-MEL-2.
For experiment [15], the system named is HCT-15.
The test system of experiment [16] is HT-29.
Experiment [17] deals with SK-OV-3.
The subject of experiment [18] is MDA-MB-435.
The test system of experiment [19] is SF-295.
The test system of experiment [20] is HOP-62.

Molecules are shown by their SMILES.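 48-hour exposure; five concentrations; linearly interpolated endpoints. At the GI50, growth is halved.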 Active and inactive are the calls of the source. Cut-off read from the data, not from the text of the source: active = GI50 up to about 1.1 µM and inactive = higher.

Take `Oc1c(/N=N\c2ccccc2)c2cccc3ccc4cccc1c4c32`: the GI50 is > 100 µM (inactive) in [1]; > 100 µM (inactive) in experiment [2]; > 100 µM (inactive) in experiment [3]; > 100 µM (inactive) in experiment [4]; > 100 µM (inactive) in experiment [5]; 40.2 µM (inactive) in [6]. Also, the GI50 in experiment [7], in experiment [8], in [9], in experiment [10], in [11] and in [12] was > 100 µM (inactive) each time. In addition, the GI50 was > 100 µM (inactive) in experiment [13]; > 100 µM (inactive) in experiment [14]; > 100 µM in experiment [15]; > 100 µM (inactive) in experiment [16]; > 100 µM (inactive) in [17]; > 100 µM (inactive) in experiment [18]. In addition, the GI50 in [19] is 81.7 µM (inactive); in experiment [20] it was 29.6 µM (inactive).

Consider `O=c1[nH]cc(/N=C/c2cc(Cl)ccc2O)c(=O)[nH]1`, for which the GI50 in [1] is 9.02 µM (inactive); in [2], 29.6 µM (inactive); in [3] it was 8.83 µM (inactive); in experiment [4], 21.6 µM (inactive); in experiment [5], 17.5 µM (inactive); in experiment [6] it was 4.35 µM (inactive). Besides, the GI50 in [7] is 22.4 µM (inactive); in experiment [8], > 100 µM (inactive); in experiment [9] it was 7.26 µM (inactive); in experiment [10], 19.2 µM (inactive); in [11], > 100 µM (inactive); in experiment [12], 21.9 µM (inactive). Further, the GI50 in experiment [13] is 11.2 µM (inactive); in experiment [14], 19.1 µM (inactive); in experiment [15] it was 2.22 µM; in experiment [16], 31.3 µM (inactive); in experiment [17] it was 18.7 µM (inactive); in experiment [18], 29.1 µM (inactive). Also, the GI50 in experiment [19] is 14.1 µM (inactive); in experiment [20], 20.6 µM (inactive).

As for `Nc1nc2c(ncn2C2CCC(CO)O2)c(=O)n1C(=O)c1ccccc1` (stereo not given), the GI50 in experiment [1], in experiment [2], in experiment [3], in experiment [4], in [5] and in [6] was > 100 µM (inactive) each time. For the same molecule, the GI50 in [7], in [8], in experiment [9], in experiment [10], in experiment [11] and in experiment [12] was > 100 µM (inactive) each time. Also, the GI50 in [13] is > 100 µM (inactive); in experiment [14], > 100 µM (inactive); in [15] it was > 100 µM; in [16], > 100 µM (inactive); in experiment [17], > 100 µM (inactive); in experiment [18], > 100 µM (inactive). Moreover, the GI50 in experiment [19] and in experiment [20] was > 100 µM (inactive) each time.

For the molecule `C=CCSc1nc2c(N)ncnc2n1C1OC(CO)C(O)C1O` (stereo not given), the GI50 in experiment [1], in [2], in experiment [3], in [4], in experiment [5] and in experiment [6] was > 100 µM (inactive) each time. Besides, the GI50 in experiment [7], in experiment [8], in [9], in experiment [10], in experiment [11] and in [12] was > 100 µM (inactive) throughout. The GI50 is > 100 µM (inactive) in experiment [13]; > 100 µM (inactive) in [14]; > 100 µM in experiment [15]; > 100 µM (inactive) in [16]; > 100 µM (inactive) in experiment [17]; > 100 µM (inactive) in experiment [18]. The GI50 in experiment [19] and in experiment [20] was > 100 µM (inactive) in each case.

Take `CC(=O)Nc1ccc(S(=O)(=O)c2nnc(NC(C)=O)s2)cc1`: the GI50 in [1] was > 100 µM (inactive); in experiment [2] it was > 100 µM (inactive); in experiment [3] it was 0.401 µM (active); in experiment [4], > 100 µM (inactive); in [5], > 100 µM (inactive); in experiment [6], > 100 µM (inactive). Further, the GI50 in experiment [7], in [8], in [9], in experiment [10], in [11] and in [12] was > 100 µM (inactive) each time. In addition, the GI50 was > 100 µM (inactive) in [13]; > 100 µM (inactive) in experiment [14]; > 100 µM in [15]; > 100 µM (inactive) in experiment [16]; > 100 µM (inactive) in experiment [17]; > 100 µM (inactive) in experiment [18]. Besides, the GI50 was 25.5 µM (inactive) in experiment [19] and > 100 µM (inactive) in experiment [20].

In the case of `COC(=O)[C@](NC(=O)OCc1ccccc1)([C@@H](C)[S+]([O-])c1ccc(C)cc1)C(F)(F)F` (stereo not given in full), the GI50 in [1] was 42.1 µM (inactive); in experiment [2], 27.7 µM (inactive); in [3] it was 27.9 µM (inactive); in experiment [4] it was 38.2 µM (inactive); in experiment [5] it was 43.7 µM (inactive); in experiment [6], 35.2 µM (inactive). In addition, the GI50 in experiment [7] is > 100 µM (inactive); in experiment [8], 31.4 µM (inactive); in [9], 34.4 µM (inactive); in experiment [10], 35.2 µM (inactive); in experiment [11], 21.5 µM (inactive); in experiment [12] it was 37.3 µM (inactive). Besides, the GI50 in experiment [13] is 26.9 µM (inactive); in experiment [14], 19.5 µM (inactive); in experiment [15], 34.7 µM; in experiment [16], 24.8 µM (inactive); in [17], 53.1 µM (inactive); in experiment [18], 33.7 µM (inactive). Also, the GI50 is 32.7 µM (inactive) in experiment [19] and > 100 µM (inactive) in experiment [20].

`CC(C)C[C@H](NC(=O)[C@H](Cc1ccc(F)cc1)NC(=O)c1ccccn1)B(O)O`: the GI50 in [1], in [2], in [3], in experiment [4], in experiment [5] and in experiment [6] was < 0.01 µM (active) each time. Moreover, the GI50 in experiment [7], in experiment [8], in experiment [9], in [10], in experiment [11] and in [12] was < 0.01 µM (active) throughout. The GI50 in experiment [13] was < 0.01 µM (active); in [14], < 0.01 µM (active); in experiment [15] it was < 0.01 µM; in experiment [16], < 0.01 µM (active); in [17] it was < 0.0148 µM (active); in experiment [18], < 0.01 µM (active). In addition, the GI50 in experiment [19] and in experiment [20] was < 0.01 µM (active) in each case.

For the molecule `CC1=C(/C=C/C(C)=C/C=C/C(C)=C/C(=O)O)C(C)(C)CCC1` [TRETINOIN], the GI50 in [1] was 48.6 µM (inactive); in experiment [2] it was > 64.3 µM (inactive); in experiment [3], 39.6 µM (inactive); in experiment [4] it was 55.3 µM (inactive); in experiment [5], 46.6 µM (inactive); in experiment [6], > 65.3 µM (inactive). The GI50 in [7] is > 68.5 µM (inactive); in experiment [8], > 74.5 µM (inactive); in experiment [9], 39.4 µM (inactive); in [10] it was 43.4 µM (inactive); in experiment [11], 71.8 µM (inactive); in [12], > 64.3 µM (inactive). For the same molecule, the GI50 is > 63.8 µM (inactive) in experiment [13]; 28.9 µM (inactive) in experiment [14]; 48.2 µM in experiment [15]; 47.6 µM (inactive) in experiment [16]; > 71.8 µM (inactive) in experiment [17]; > 58.5 µM (inactive) in experiment [18]. Further, the GI50 was 54.8 µM (inactive) in experiment [19] and 49.9 µM (inactive) in [20].
